Assays:
HCT-116 [1] = test: Induction of apoptosis in human HCT116 cells assessed as viable cells at 8 uM after 72 hrs by Annexin V/Propidium iodide staining based flow cytometric analysis (reference value: 92.47 %); assay type: functional; conditions: HCT-116, 72 h, read-out: Activity
HepG2 = test: Antiproliferative activity against human HepG2 cells assessed as cell viability after 72 hrs by MTT assay; assay type: functional, cell-based; conditions: HepG2, 72 h
HCT-116 [2] = test: Induction of apoptosis in human HCT116 cells assessed as mitochondrial membrane potential at 2 uM after 72 hrs by JC-1 staining based flow cytometric analysis (reference value: 98.02 %); assay type: functional
[3] = Antiproliferative activity against human HCT116 cells assessed as cell viability after 72 hrs by MTT assay; assay type: functional, cell-based; conditions: HCT-116, 72 h
MCF7 = test: Antiproliferative activity against human MCF7 cells assessed as cell viability after 72 hrs by MTT assay; assay type: functional, cell-based; conditions: MCF7, 72 h
HCT-116 [4] = test: Induction of apoptosis in human HCT116 cells assessed as viable cells at 2 uM after 72 hrs by Annexin V/Propidium iodide staining based flow cytometric analysis (reference value: 92.47 %); assay type: functional; conditions: HCT-116, 72 h, read-out: Activity
[5] = Cytotoxicity against human CCD-841-CoN cells assessed as cell viability after 72 hrs by MTT assay; assay type: cell-based
[6] = Cell cycle arrest in human HCT116 cells assessed as accumulation at S phase at 4 uM after 72 hrs by Propidium iodide staining-based flow cytometric analysis (reference value: 37.29 %); assay type: functional; conditions: HCT-116
HCT-116 [7] = test: Induction of apoptosis in human HCT116 cells assessed as early apoptotic cells at 2 uM after 72 hrs by Annexin V/Propidium iodide staining based flow cytometric analysis (reference value: 5.07 %); assay type: functional
A549 = test: Antiproliferative activity against human A549 cells assessed as cell viability after 72 hrs by MTT assay; assay type: functional, cell-based; conditions: A549, 72 h
[8] = Cell cycle arrest in human HCT116 cells assessed as accumulation at G2 phase at 2 uM after 72 hrs by Propidium iodide staining-based flow cytometric analysis (reference value: 5.69 %); assay type: functional; conditions: HCT-116
HCT-116 [9] = test: Induction of apoptosis in human HCT116 cells assessed as mitochondrial membrane potential at 8 uM after 72 hrs by JC-1 staining based flow cytometric analysis (reference value: 98.02 %); assay type: functional
HCT-116 [10] = test: Induction of apoptosis in human HCT116 cells assessed as necrotic cells at 4 uM after 72 hrs by Annexin V/Propidium iodide staining based flow cytometric analysis (reference value: 0.97 %); assay type: functional
HCT-116 [11] = test: Induction of apoptosis in human HCT116 cells assessed as necrotic cells at 8 uM after 72 hrs by Annexin V/Propidium iodide staining based flow cytometric analysis (reference value: 0.97 %); assay type: functional
HCT-116 [12] = test: Induction of apoptosis in human HCT116 cells assessed as mitochondrial membrane potential at 4 uM after 72 hrs by JC-1 staining based flow cytometric analysis (reference value: 98.02 %); assay type: functional
[13] = Cell cycle arrest in human HCT116 cells assessed as accumulation at G1 phase at 4 uM after 72 hrs by Propidium iodide staining-based flow cytometric analysis (reference value: 57.02 %); assay type: functional; conditions: HCT-116
HeLa = test: Antiproliferative activity against human HeLa cells assessed as cell viability after 72 hrs by MTT assay; assay type: functional, cell-based
HCT-116 [14] = test: Induction of apoptosis in human HCT116 cells assessed as late apoptotic cells at 4 uM after 72 hrs by Annexin V/Propidium iodide staining based flow cytometric analysis (reference value: 1.49 %); assay type: functional
[15] = Cell cycle arrest in human HCT116 cells assessed as accumulation at G2 phase at 8 uM after 72 hrs by Propidium iodide staining-based flow cytometric analysis (reference value: 5.69 %); assay type: functional; conditions: HCT-116
HCT-116 [16] = test: Induction of apoptosis in human HCT116 cells assessed as decrease in mitochondrial membrane potential after 72 hrs by JC-1 staining based flow cytometric analysis; assay type: functional, cell-based
[17] = Cell cycle arrest in human HCT116 cells assessed as accumulation at S phase at 8 uM after 72 hrs by Propidium iodide staining-based flow cytometric analysis (reference value: 37.29 %); assay type: functional; conditions: HCT-116
HCT-116 [18] = test: Induction of apoptosis in human HCT116 cells assessed as late apoptotic cells at 8 uM after 72 hrs by Annexin V/Propidium iodide staining based flow cytometric analysis (reference value: 1.49 %); assay type: functional
[19] = Cell cycle arrest in human HCT116 cells assessed as accumulation at S phase at 2 uM after 72 hrs by Propidium iodide staining-based flow cytometric analysis (reference value: 37.29 %); assay type: functional; conditions: HCT-116
HCT-116 [20] = test: Induction of apoptosis in human HCT116 cells assessed as viable cells at 4 uM after 72 hrs by Annexin V/Propidium iodide staining based flow cytometric analysis (reference value: 92.47 %); assay type: functional; conditions: HCT-116, 72 h, read-out: Activity
HaCaT = test: Cytotoxicity against human HaCaT cells assessed as cell viability after 72 hrs by MTT assay; assay type: cell-based
[21] = Antiproliferative activity against human HL60 cells assessed as cell viability after 72 hrs by MTT assay; assay type: functional, cell-based; conditions: HL-60, 72 h
[22] = Cytotoxicity against human BEAS2B cells assessed as cell viability after 72 hrs by MTT assay; assay type: cell-based; conditions: BEAS-2B
[23] = Cell cycle arrest in human HCT116 cells assessed as accumulation at G2 phase at 4 uM after 72 hrs by Propidium iodide staining-based flow cytometric analysis (reference value: 5.69 %); assay type: functional; conditions: HCT-116
HCT-116 [24] = test: Induction of apoptosis in human HCT116 cells assessed as late apoptotic cells at 2 uM after 72 hrs by Annexin V/Propidium iodide staining based flow cytometric analysis (reference value: 1.49 %); assay type: functional
[25] = Cell cycle arrest in human HCT116 cells assessed as accumulation at G1 phase at 2 uM after 72 hrs by Propidium iodide staining-based flow cytometric analysis (reference value: 57.02 %); assay type: functional; conditions: HCT-116
[26] = Cytotoxicity against human LO2 cells assessed as cell viability after 72 hrs by MTT assay; assay type: cell-based; conditions: L02, 72 h
HCT-116 [27] = test: Induction of apoptosis in human HCT116 cells assessed as early apoptotic cells at 8 uM after 72 hrs by Annexin V/Propidium iodide staining based flow cytometric analysis (reference value: 5.07 %); assay type: functional
[28] = Cytotoxicity against human HBMEC cells assessed as cell viability after 72 hrs by MTT assay; assay type: cell-based
HCT-116 [29] = test: Induction of apoptosis in human HCT116 cells assessed as necrotic cells at 2 uM after 72 hrs by Annexin V/Propidium iodide staining based flow cytometric analysis (reference value: 0.97 %); assay type: functional
[30] = Cell cycle arrest in human HCT116 cells assessed as accumulation at G1 phase at 8 uM after 72 hrs by Propidium iodide staining-based flow cytometric analysis (reference value: 57.02 %); assay type: functional; conditions: HCT-116
HCT-116 [31] = test: Induction of apoptosis in human HCT116 cells assessed as early apoptotic cells at 4 uM after 72 hrs by Annexin V/Propidium iodide staining based flow cytometric analysis (reference value: 5.07 %); assay type: functional

IC50 (HepG2): > 50 µM
IC50 (MCF7): > 50 µM
IC50 (A549): > 50 µM
IC50 (HeLa): > 50 µM
Compound: CC(C)c1ccc(/C=C/C(=O)N[C@H]2[C@H](O[C@H]3CC[C@]4(C)[C@H]5CC=C6[C@@H]7CC(C)(C)CC[C@]7(C(=O)O)CC[C@@]6(C)[C@]5(C)CC[C@H]4C3(C)C)O[C@H](CO[C@@H]3OC[C@H](O)[C@H](O)[C@H]3O)[C@@H](O)[C@@H]2O)cc1
viability at 8 µM (HCT-116 [1]): 28.3%
Activity (HCT-116 [2]): 86.87%
IC50 [3]: 7.6 µM
viability at 2 µM (HCT-116 [4]): 81.6%
IC50 [5]: > 50 µM
Activity [6]: 42.1%
Activity (HCT-116 [7]): 4.51%
Activity [8]: 9.86%
Activity (HCT-116 [9]): 47.79%
Activity (HCT-116 [10]): 3.34%
Activity (HCT-116 [11]): 3.9%
Activity (HCT-116 [12]): 73.55%
Activity [13]: 46.5%
Activity (HCT-116 [14]): 28%
Activity [15]: 16.5%
Activity (HCT-116 [16]): Dose-dependent effect
Activity [17]: 42.8%
Activity (HCT-116 [18]): 27%
Activity [19]: 36.4%
viability at 4 µM (HCT-116 [20]): 63.3%
IC50 (HaCaT): > 50 µM
IC50 [21]: > 50 µM
IC50 [22]: > 50 µM
Activity [23]: 11.4%
Activity (HCT-116 [24]): 12.21%
Activity [25]: 53.8%
IC50 [26]: > 50 µM
Activity (HCT-116 [27]): 40.8%
IC50 [28]: > 50 µM
Activity (HCT-116 [29]): 1.67%
Activity [30]: 40.8%
Activity (HCT-116 [31]): 5.4%
